Assay results taken from PMC6804253, “Predicting and Experimentally Validating Hot-Spot Residues at Protein–Protein Interfaces” (ACS Chemical Biology, 2019).
Where a chain is given by its changes, count along the chain named. Where two headings read alike, the source gives them in different places. Where a SMILES comes first, the peptide text is derived from it. Where no end group is shown, it is not given here. The star is where a group is joined. 5FAM = O=C1OC2(c3ccc(O)cc3Oc3cc(O)ccc32)c2ccc(C(=O)*)cc21; AEEA = NCCOCCOCC(=O)O

Experiments:
[1] = system: PPIs of the SKEMPI data set (by PDBID); assay: SKEMPI experimental ΔΔG, single mutations to alanine; assay type: binding; settings: for sk_class (class of the SKEMPI experimental ΔΔG): Positive / Neutral / Negative by ΔΔG threshold 4.184 kJ/mol
[2] = system: PPIs of the SKEMPI data set (by PDBID); settings: cited from earlier work; for sk_ddG_kJ (SKEMPI experimental ΔΔG of binding, mutation to alanine): single mutation to alanine in the complex of the given PDBID
[3] = system: PPIs of the SKEMPI data set (by PDBID); settings: Flex_ddG Talaris2014, 1 REU = 1 kcal/mol assumed; cited from earlier work
[4] = system: PPIs of the SKEMPI data set (by PDBID); settings: Flex_ddG Ref2015, 1 REU = 1 kcal/mol assumed; cited from earlier work
SUMO-1 = target: T1, SUMO-1 (Homo sapiens, UniProt P63165); assay type: binding
T1 construct: The pet19b His-TEV-SUMO-1 (18-97) construct was over-expressed; His-TEV (N, cleaved yes); made in house; host or cells: E. coli Rosetta 2
T1 sequence (P63165 18-97, species assumed): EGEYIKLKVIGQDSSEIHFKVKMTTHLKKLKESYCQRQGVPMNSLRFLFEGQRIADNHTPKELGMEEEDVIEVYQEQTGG

SHANK-PDZ = target: T2, SHANK-PDZ (Homo sapiens, UniProt Q9Y566); settings: for H (fitted ITC data): binding enthalpy from ITC fit; for H (fitted ITC data) / S (fitted ITC data): 20 mM Tris, 150 mM NaCl pH 7.5 at 25 °C; for S (fitted ITC data): binding entropy from ITC fit
T2 sequence (Q9Y566 656-762): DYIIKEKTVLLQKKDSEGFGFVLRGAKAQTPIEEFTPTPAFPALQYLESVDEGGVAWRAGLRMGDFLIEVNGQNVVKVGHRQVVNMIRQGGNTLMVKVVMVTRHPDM

[5] = class of the experimental SKEMPI ΔΔG
[6] = experimental ΔΔG of single mutation to alanine, SKEMPI database
[7] = class of the SKEMPI experimental ΔΔG, ref SKEMPI
[8] = SKEMPI experimental ΔΔG of binding, single mutation to alanine, complex by PDBID, ref SKEMPI

1A22 IA4A
sk_class (class of the SKEMPI experimental ΔΔG) ([1]; ref SKEMPI): Neutral (neutral (little effect) 4.184 kJ/mol < ΔΔG > −4.184 kJ/mol)
sk_class [1, 5]: Neutral (neutral (little effect) 4.184 kJ/mol < ΔΔG > −4.184 kJ/mol)
sk_ddG_kJ [2, 6]: 1.72 kJ/mol
sk_ddG_kJ (SKEMPI experimental ΔΔG of binding, mutation to alanine) ([2]; ref SKEMPI): 1.72 kJ
rosetta_ddG_kJ [3]: -0.52 kJ/mol
ref2015_ddG_kJ [4]: -0.84 kJ/mol

1A22 LA6A
sk_class (class of the SKEMPI experimental ΔΔG) ([1]; ref SKEMPI): Neutral (neutral (little effect) 4.184 kJ/mol < ΔΔG > −4.184 kJ/mol)
sk_class [1, 5]: Neutral (neutral (little effect) 4.184 kJ/mol < ΔΔG > −4.184 kJ/mol)
sk_ddG_kJ [2, 6]: 2.51 kJ/mol
sk_ddG_kJ (SKEMPI experimental ΔΔG of binding, mutation to alanine) ([2]; ref SKEMPI): 2.51 kJ
rosetta_ddG_kJ [3]: -0.28 kJ/mol
ref2015_ddG_kJ [4]: -0.77 kJ/mol

1A22 PA5A
sk_class [1, 5]: Neutral (neutral (little effect) 4.184 kJ/mol < ΔΔG > −4.184 kJ/mol)
sk_class (class of SKEMPI experimental ΔΔG) ([2]; class by ΔΔG threshold 4.184 kJ/mol, ref SKEMPI): Neutral (neutral (little effect) 4.184 kJ/mol < ΔΔG > −4.184 kJ/mol)
sk_ddG_kJ [2, 6]: 1.80 kJ/mol
sk_ddG_kJ (SKEMPI experimental ΔΔG, mutation to alanine) ([2]; single mutation to alanine, complex given by PDBID, residue group in r_group, ref SKEMPI): 1.80 kJ
rosetta_ddG_kJ [3]: 0.61 kJ/mol
ref2015_ddG_kJ [4]: 0.17 kJ/mol

1A22 TA3A
sk_class ([1]; class of the SKEMPI experimental ΔΔG): Neutral (neutral (little effect) 4.184 kJ/mol < ΔΔG > −4.184 kJ/mol)
sk_class [1, 5]: Neutral (neutral (little effect) 4.184 kJ/mol < ΔΔG > −4.184 kJ/mol)
sk_ddG_kJ [2, 6]: -0.21 kJ/mol
sk_ddG_kJ (SKEMPI experimental ΔΔG) ([2]; single mutation to alanine, complex given by PDBID, mutation by mut_pdb, ref SKEMPI): -0.21 kJ
rosetta_ddG_kJ [3]: -0.17 kJ/mol
ref2015_ddG_kJ [4]: 0.30 kJ/mol

CC[C@H](C)[C@H](NC(=O)[C@H](C)NC(=O)[C@H](CC(N)=O)NC(=O)[C@H](CC(=O)O)NC(=O)COCCOCCNC(=O)c1ccc2c(c1)C(=O)OC21c2ccc(O)cc2Oc2cc(O)ccc21)C(=O)N[C@@H](CCC(=O)O)C(=O)N[C@H](C(=O)N[C@H](C(=O)N[C@H](C(=O)N[C@H](C(=O)N[C@@H](Cc1c[nH]c2ccccc12)C(=O)N[C@@H](CCC(=O)O)C(=O)N[C@@H](CCCCN)C(=O)N[C@@H](CCCCN)C(N)=O)C(C)C)[C@@H](C)CC)[C@@H](C)CC)C(C)C [FAM-E2707A SIM] ({5FAM-AEEA}-DNAIEVIIVWEKK-NH2)
Experimental competition (ΔΔG on mutation of the residue to alanine) (SUMO-1): 1.7
Experimental competition (ΔΔG) (SUMO-1): 1.7 kJ/mol

CC[C@H](C)[C@H](NC(=O)[C@H](CCC(=O)O)NC(=O)[C@H](CC(N)=O)NC(=O)[C@H](CC(=O)O)NC(=O)COCCOCCNC(=O)c1ccc2c(c1)C(=O)OC21c2ccc(O)cc2Oc2cc(O)ccc21)C(=O)N[C@@H](CCC(=O)O)C(=O)N[C@H](C(=O)N[C@H](C(=O)N[C@@H](C)C(=O)N[C@H](C(=O)N[C@@H](Cc1c[nH]c2ccccc12)C(=O)N[C@@H](CCC(=O)O)C(=O)N[C@@H](CCCCN)C(=O)N[C@@H](CCCCN)C(N)=O)C(C)C)[C@@H](C)CC)C(C)C [FAM-I2712A SIM] ({5FAM-AEEA}-DNEIEVIAVWEKK-NH2)
Experimental competition (ΔΔG on mutation of the residue to alanine) (SUMO-1): 5.7
Experimental competition (ΔΔG) (SUMO-1): 5.7 kJ/mol

CC[C@H](C)[C@H](NC(=O)[C@H](C)NC(=O)[C@H](CCC(=O)O)NC(=O)[C@@H](NC(=O)[C@H](CCC(=O)O)NC(=O)[C@H](CC(N)=O)NC(=O)[C@H](CC(=O)O)NC(=O)COCCOCCNC(=O)c1ccc2c(c1)C(=O)OC21c2ccc(O)cc2Oc2cc(O)ccc21)[C@@H](C)CC)C(=O)N[C@H](C(=O)N[C@H](C(=O)N[C@@H](Cc1c[nH]c2ccccc12)C(=O)N[C@@H](CCC(=O)O)C(=O)N[C@@H](CCCCN)C(=O)N[C@@H](CCCCN)C(N)=O)C(C)C)[C@@H](C)CC [FAM-V2710A SIM] ({5FAM-AEEA}-DNEIEAIIVWEKK-NH2)
Experimental competition (ΔΔG on mutation of the residue to alanine) (SUMO-1): 4.7
Experimental competition (ΔΔG) (SUMO-1): 4.7 kJ/mol

CC[C@H](C)[C@H](NC(=O)[C@H](CCC(=O)O)NC(=O)[C@H](CC(N)=O)NC(=O)[C@H](CC(=O)O)NC(=O)COCCOCCNC(=O)c1ccc2c(c1)C(=O)OC21c2ccc(O)cc2Oc2cc(O)ccc21)C(=O)N[C@@H](CCC(=O)O)C(=O)N[C@H](C(=O)N[C@H](C(=O)N[C@H](C(=O)N[C@H](C(=O)N[C@@H](C)C(=O)N[C@@H](CCC(=O)O)C(=O)N[C@@H](CCCCN)C(=O)N[C@@H](CCCCN)C(N)=O)C(C)C)[C@@H](C)CC)[C@@H](C)CC)C(C)C [FAM-W2714A SIM] ({5FAM-AEEA}-DNEIEVIIVAEKK-NH2)
Experimental competition (ΔΔG on mutation of the residue to alanine) (SUMO-1): 8.1
Experimental competition (ΔΔG) (SUMO-1): 8.1 kJ/mol

Ac-EAQTRL [GKAP]
H (fitted ITC data) (SHANK-PDZ): -27.4 ± 0.17 kJ/mol
S (fitted ITC data) (SHANK-PDZ): 3.49 cal/molK

Ac-EAQTRL-NH2 [CO2H-CONH2 GKAP]
Experimental ΔΔG, direct titration (SHANK-PDZ): 11.4 kJ/mol
H (fitted ITC data) (SHANK-PDZ): -6.57 ± 0.753 kJ/mol
S (fitted ITC data) (SHANK-PDZ): 11.2 cal/molK

B1: 1DAN KT46A (protein, UniProt P13726 33-251, looked up, variant K46A)
extracellular domain: SGTTNTVAAYNLTWKSTNFKTILEWEPKPVNQVYTVQISTKSGDWASKCFYTTDTECDLTDEIVKDVKQTYLARVFSYPAGNVESTGSAGEPLYENSPEFTPYLETNLGQPTIQSFEQVGTKVNVTVEDERTLVRRNNTFLSLRDVFGKDLIYTLYYWKSSSSGKKTAKTNTNEFLIDVDKGENYCFSVQAVIPSRTVNRKSTDSPVECMGQEKGEFRE
modifications: extracellular domain
sk_class [1, 7]: Neutral (neutral (little effect) 4.184 kJ/mol < ΔΔG > −4.184 kJ/mol)
sk_ddG_kJ [2, 8]: 1.00 kJ

B2: 1DAN KT48A (protein, UniProt P13726 33-251, looked up, variant K48A)
extracellular domain: B1 extracellular domain with A46K, K48A
modifications: extracellular domain
sk_class [1, 7]: Neutral (neutral (little effect) 4.184 kJ/mol < ΔΔG > −4.184 kJ/mol)
sk_ddG_kJ [2, 8]: 1.76 kJ

B3: 1DAN DT58A (protein, UniProt P13726 33-251, looked up, variant D58A)
extracellular domain: B1 extracellular domain with A46K, D58A
modifications: extracellular domain
sk_class [1, 7]: Positive (positive (a hot residue) ΔΔG ≥ 4.184 kJ/mol)
sk_ddG_kJ [2, 8]: 8.37 kJ

B4: 1DAN EU99A (protein, UniProt P13726 33-251, looked up, variant E99A)
extracellular domain: B1 extracellular domain with A46K, E99A
modifications: extracellular domain
sk_class [1, 7]: Neutral (neutral (little effect) 4.184 kJ/mol < ΔΔG > −4.184 kJ/mol)
sk_ddG_kJ [2, 8]: -0.75 kJ

B5: 1DAN KU122A (protein, UniProt P13726 33-251, looked up, variant K122A)
extracellular domain: B1 extracellular domain with A46K, K122A
modifications: extracellular domain
sk_class [1, 7]: Neutral (neutral (little effect) 4.184 kJ/mol < ΔΔG > −4.184 kJ/mol)
sk_ddG_kJ [2, 8]: -0.50 kJ

B6: 1DAN EU128A (protein, UniProt P13726 33-251, looked up, variant E128A)
extracellular domain: B1 extracellular domain with A46K, E128A
modifications: extracellular domain
sk_class [1, 7]: Neutral (neutral (little effect) 4.184 kJ/mol < ΔΔG > −4.184 kJ/mol)
sk_ddG_kJ [2, 8]: 0.38 kJ

B7: 1DAN DU129A (protein, UniProt P13726 33-251, looked up, variant D129A)
extracellular domain: B1 extracellular domain with A46K, D129A
modifications: extracellular domain
sk_class [1, 7]: Neutral (neutral (little effect) 4.184 kJ/mol < ΔΔG > −4.184 kJ/mol)
sk_ddG_kJ [2, 8]: -0.08 kJ

B8: 1DAN RU131A (protein, UniProt P13726 33-251, looked up, variant R131A)
extracellular domain: B1 extracellular domain with A46K, R131A
modifications: extracellular domain
sk_class [1, 7]: Neutral (neutral (little effect) 4.184 kJ/mol < ΔΔG > −4.184 kJ/mol)
sk_ddG_kJ [2, 8]: 0.00 kJ
